Source: paper PMC6934184, “Selective DNA-PKcs inhibition extends the therapeutic index of localized radiotherapy and chemotherapy” (The Journal of Clinical Investigation, 2019)

Molecular target: T1, RET M918T (Homo sapiens, UniProt P07949, M918T)
T1 construct: purchased Thermo Fisher Scientific (Life Technologies) SelectScreen
Assay: SelectScreen LanthaScreen
Format: binding
Details: read-out: % displacement
Procedure, shortened: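 SelectScreen broad panel; activity (Z'LYTE, Adapta) plus binding formats. ATP: Km app for CSF1R Z'LYTE; 10 for CAMK1 Adapta. Readout = % per kinase.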

T1 sequence (P07949 29-1114 M918T): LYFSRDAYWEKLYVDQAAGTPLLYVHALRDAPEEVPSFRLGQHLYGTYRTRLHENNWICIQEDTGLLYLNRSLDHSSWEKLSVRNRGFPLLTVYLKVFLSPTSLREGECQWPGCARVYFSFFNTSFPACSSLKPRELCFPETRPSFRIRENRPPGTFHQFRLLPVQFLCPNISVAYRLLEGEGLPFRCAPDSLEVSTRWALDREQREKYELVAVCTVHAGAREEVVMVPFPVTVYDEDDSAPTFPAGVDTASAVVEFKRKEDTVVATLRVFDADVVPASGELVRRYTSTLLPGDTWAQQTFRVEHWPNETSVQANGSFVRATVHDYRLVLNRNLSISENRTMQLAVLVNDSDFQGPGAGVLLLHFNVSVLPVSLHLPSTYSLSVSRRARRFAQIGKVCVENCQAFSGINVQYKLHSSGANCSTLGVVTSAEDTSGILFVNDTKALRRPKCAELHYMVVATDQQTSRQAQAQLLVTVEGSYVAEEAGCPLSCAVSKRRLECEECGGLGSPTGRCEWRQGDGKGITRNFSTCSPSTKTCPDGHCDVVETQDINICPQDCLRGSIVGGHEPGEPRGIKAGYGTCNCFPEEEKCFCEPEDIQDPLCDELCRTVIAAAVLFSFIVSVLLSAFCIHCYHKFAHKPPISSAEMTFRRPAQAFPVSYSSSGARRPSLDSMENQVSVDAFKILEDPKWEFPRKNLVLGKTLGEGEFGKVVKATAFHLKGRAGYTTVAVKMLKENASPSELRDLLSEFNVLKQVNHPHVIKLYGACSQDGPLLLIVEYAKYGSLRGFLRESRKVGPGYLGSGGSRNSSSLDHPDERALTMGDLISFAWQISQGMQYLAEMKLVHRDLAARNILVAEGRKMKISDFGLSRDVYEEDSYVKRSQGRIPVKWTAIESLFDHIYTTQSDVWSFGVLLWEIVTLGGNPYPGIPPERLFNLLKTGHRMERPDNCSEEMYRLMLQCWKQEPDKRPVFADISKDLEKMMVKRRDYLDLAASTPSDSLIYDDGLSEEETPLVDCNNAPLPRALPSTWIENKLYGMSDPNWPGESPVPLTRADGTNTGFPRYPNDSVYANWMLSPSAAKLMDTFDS

CN(C(=O)CN1CCOCC1)c1ccc2sc3c(-c4cccc5c(=O)cc(N6CC7CCC(C6)O7)oc45)cccc3c2c1 [NU5455] was tested, and the inhibition at 1 µM was -3.5%.
